Patent publication US20220339135A1, “COMPOSITIONS AND METHODS FOR MODULATING AN INFLAMMATORY RESPONSE” (Enzychem Lifesciences Corporation, priority 2019, published 2022)

What was measured:
[1] = system: MIP-2, IL-6, CXCL8 in RAW 264.7 or HaCaT cells; assay: IMQ-induced chemokine release, ELISA; format: cell-based; conditions: PLAG 1, 10, 100 μg/ml, IMQ 12 hours, dose-dependent
Method: RAW 264.7 or HaCaT cells were divided into three groups: 1) control (non-treated) group, 2) IMQ treated group, and 3) IMQ/PLAG treated group. For IMQ treated group, cells were treated with 1, 10, 100 μg/ml of DMSO (as solvent control) for 1 hour and treated with 5 μg/mL of IMQ for 12 hours. For IMQ/PLAG treated group, cells were treated with 1, 10, 100 μg/ml of PLAG for 1 hour and treated with 5 μg/mL of IMQ for 12 hours. MIP-2 (A), IL-6 (B) and CXCL8 (C) in the culture supernatants were analyzed with the cognate antibody using ELISA kit. Modulation of CXCL8 expression in the IMQ treated HaCaT cells by MAPK inhibitors, SCH 772984 (ERK inhibitor, (D)), SP600125 (JNK inhibitor, (E)) and SB203580 (p38 inhibitor, (F)) was evaluated using ELISA kit (BD bioscience, New Jersey, USA) according to the manufacturer's instructions. The cytokine levels were estimated by interpolation from a standard curve using an ELISA reader (Molecular Devices, Sunnyvale, USA) at 450 nm.

[2] = system: P2Y6 receptor on THP-1 cells; assay: MSU-induced P2Y6 receptor trafficking; format: cell-based, human
Method: THP-1 cells were divided into two groups: 1) MSU treated group and 2) MSU/PLAG treated group. For MSU treated group, THP-1 cells were stimulated with monosodium urate (MSU) crystal (400 μg/ml) for 0, 10, 20, 30, 40, 50, 60 minutes. For MSU/PLAG treated group, THP-1 cells were pre-incubated with PLAG (100 μg/ml) for an hour and then stimulated with monosodium urate (MSU) crystal (400 μg/ml) for 0, 10, 20, 30, 40, 50, 60 minutes. Then, cells were harvested. (A) To detect for the P2Y6 receptor on the membrane surface, cells were fixed with 4% paraformaldehyde (Sigma-Aldrich) and incubated with PBS containing 1% BSA for blocking. They were labeled with the rabbit anti-P2Y6 receptor antibody (1:200, APR-011, Alomone Labs, Jerusalem, Israel) for 1 h. The detection Ab was used with Alexa Flour 488 goat anti-rabbit IgG (Invitrogen). (B) To detect lysosomal activity, THP-1 cells were stained with Texas red conjugated-LYSO-ID® Lysosomal Detection Kit (Enzo Life Sciences, Inc.). Finally, cells were washed with 1% FBS/PBS and mounted with DAPI-containing fluorescence microscopy mounting medium (Invitrogen). Confocal samples were analyzed with a laser scanning confocal microscope (Carl Zeiss, Oberkochen, Germany). For flow cytometric analysis, cells were washed and analyzed with a FACSVerse flow cytometer (BD Biosciences). FlowJo software (Tree Star, OR, USA) was used data processing.
The specific siRNA of CD36 (sc-29995) and control siRNA (sc-37007) were purchased from Santa Cruz Biotechnology. Cells were transfected with 50 nM of either the targeting or control siRNA using HiPerFect Transfection Reagent (Qiagen, Hilden, Germany) for 24 h. The knockdown efficiency of siRNAs was confirmed by Western blot analysis.
THP-1 cells were pre-incubated with PLAG (100 μg/ml) for 1 hour and then stimulated with MSU crystal (400 μg/ml). After 15, 30, 60 min, cells were harvested. […] For flow cytometric analysis, cells were washed with 1% FBS/PBS and analyzed with a FACSVerse flow cytometer (BD Biosciences). […]

[3] = system: NETosis of dHL-60 cells; assay: IMQ-induced NETosis, confocal microscopy of DNA-elastase complex; format: cell-based, human; conditions: PLAG 10 or 100 μg/mL, dose-dependent
Method: HL-60 cells were differentiated (dHL-60) to neutrophil-like cells in the culture medium with the addition of 1.3% DMSO (Sigma) for 5 days in a humidified atmosphere at 37° C. without changing the medium. dHL-60 cells (2×10^5 cells/mL) were loaded with 5 μM fluo-4 AM for 45 minutes and washed three times with warmed modified (37° C.) HBSS buffer (137.93 mM NaCl, 5.33 mM KCl, 2 mM CaCl2, 1 mM MgSO4, 2.38 mM HEPES, 5.5 mM glucose, pH to 7.4). The cells were seeded on black-walled 96-well plates and then treated with vehicle (0.1% DMSO), imiquimod (10 μg/mL) or PLAG (10 or 100 μg/mL) just before measurement. Baseline fluorescence was measured before treatment, and fluorescence was read every 20 s for 700 s using an excitation wavelength of 494 nm, an emission wavelength of 516 nm in a FlexStation 3 microplate reader (Molecular Devices). Fluorescence values were reported as F/Fo according to the calculation: [ΔF=(494 nm)f/(516 nm)f−(494 nm)0/(516 nm)0]. […]
HL-60 cells were harvested and detected extracellular DNA-elastase complex by using ELISA and visualized by using confocal microscopy (×400) or scanning electron microscope (SEM) (×8000). HL-60 cells were washed with PBS and mounted in DAPI-containing fluorescence microscopy mounting medium (Invitrogen). Samples were analyzed with a laser scanning confocal microscope (Carl Zeiss, Oberkochen, Germany).

[4] = system: chemo-radiation induced oral mucositis; assay: Chemo-radiation induced oral mucositis (CRIOM), Example 48; format: in vivo, mice
Method: Mice (7-9 weeks, Balb/[…]) were administered intraperitoneally 5-FU (100 mg/kg, Sigma Aldrich). After 1 hr, mice head received 20 Gy using x-ray irradiatior (X-RAD 320, 1.8 Gy/min). Custom-made lead shields were used for mice to limit the radiation to the heads. PLAG (Enzychem Lifesciences Co.) was administered orally with 250 mg/kg once daily. The experimental design of the study was represented in schematic design. […] Toluidine blue stains ribonucleotides and detect inflammatory tissues.

## CCCCC/C=C\C/C=C\CCCCCCCC(=O)OC(COC(C)=O)COC(=O)CCCCCCCCCCCCCCC (racemic) [PLAG, 1-palmitoyl-2-linoleoyl-3-acetylglycerol]
[1]
  MIP-2, IL-6, CXCL8 induced by IMQ: gradually decreased
[2]; MSU/PLAG treated cells
  P2Y6 endocytosis initiates: about 10 minutes
  P2Y6 returned to the surface: about 30 minutes
[2]; control and CD36 silenced cells
  promotion of P2Y6 receptor endocytosis (flow cytometry): still observed
[3]
  IMQ-induced NETosis: promotes
[4]; PLAG 250 mg/kg once daily, day 9
  mucositis and ulcer in tongues: no mucositis and ulcer
[4]; PLAG treated group n=8, day 9
  mice tongues stained with toluidine blue: one out of eight
